Experimental data from patent publication US8735423B2, “Bicyclic compounds as α4β2 nicotinic acetylcholine receptor ligands” (priority 2009, dated 2014).

Tests used:
Male Wister rats [1] = test: Object Recognition Task Model; assay type: in vivo; conditions: rat; for Exploration time mean ± S.E.M, Familiar object / Exploration time mean ± S.E.M, Novel object: choice trial T2
Experimental: Object Recognition Task Model
The cognition-enhancing properties of compounds of this invention were estimated using a model of animal cognition: the object recognition task model.
Male Wister rats (230-280 grams) obtained from N. I. N. (National Institute of Nutrition, Hyderabad, India) was used as experimental animals. Four animals were housed in each cage. Animals were kept on 20% food deprivation before one day and given water ad libitum throughout the experiment and maintained on a 12 hours light/dark cycle. Also the rats were habituated to individual arenas for 1 hour in the absence of any objects.
One group of 12 rats received vehicle (1 mL/Kg) orally and another set of animals received compound of the formula (I) either orally or i.p., before one hour of the familiar (T1) and choice trial (T2).
The experiment was carried out in a 50×50×50 cm open field made up of acrylic. In the familiarization phase, (T1), the rats were placed individually in the open field for 3 minutes, in which two identical objects (plastic bottles, 12.5 cm height×5.5 cm diameter) covered in yellow masking tape alone (a1 and a2) were positioned in two adjacent corners, 10 cm. from the walls. After 24 hours of the (T1) trial for long-term memory test, the same rats were placed in the same arena as they were placed in T1 trial. Choice phase (T2) rats were allowed to explore the open field for 3 minutes in presence of one familiar object (a3) and one novel object (b) (Amber color glass bottle, 12 cm high and 5 cm in diameter). Familiar objects presented similar textures, colors and sizes. During the T1 and T2 trial, explorations of each object (defined as sniffing, licking, chewing or having moving vibrissae whilst directing the nose towards the object at a distance of less than 1 cm) were recorded separately by stopwatch. Sitting on an object was not regarded as exploratory activity, however, it was rarely observed.
T1 is the total time spent exploring the familiar objects (a1+a2).
T2 is the total time spent exploring the familiar object and novel object (a3+b).
The object recognition test was performed as described by Ennaceur, A., Delacour, J., 1988, A new one-trial test for neurobiological studies of memory in rats—Behavioural data, Behay. Brain Res., 31, 47-59.
Some representative compounds have shown positive effects indicating the increased novel object recognition viz; increased exploration time with novel object and higher discrimination index.

[2] = target: Human or Rat Nicotinic Acetylcholine α4β2 receptor (UniProt P09483+P12390); test: Binding assay for Human or Rat Nicotinic Acetylcholine α4β2 receptor ([3H] Cytisine); conditions: [3H] Cytisine 2.5 nM; rat brain frontal cortex or recombinant human cDNA expressed in CHO cells
Experimental: Binding assay for Human or Rat Nicotinic Acetylcholine α4β2 receptor
Compounds can be evaluated according to the following procedures.
Materials and Methods: • Receptor source: Rat brain frontal cortex or recombinant human cDNA expressed in CHO cells • Radioligand: [^3H] Cytisine 15-40 Ci/mmol • Final ligand concentration—[2.5 nM] • Non-specific determinant: Epibatidine-[0.1 μM] • Reference compound: Epibatidine • Positive control: Epibatidine Incubation Conditions:
Increasing concentrations of test compounds or standard were incubated with membrane receptors and radioligand in 120 mM NaCl, 2.5 mM KCl, 1 mM CaCl2, 1 mM MgCl2 and 50 mM TRIS-HCl (pH 7.4) for 60 minutes at room temperature. The reaction was terminated by rapid vacuum filtration onto the glass fiber filters. Radioactivity trapped onto the filters was determined and compared to the control values in order to ascertain any interactions of the test compound(s) with either cloned human or rat receptor binding site.
Literature Reference: Bunnelle W. H., Daanen J. F., Ryther K. B., Schrimpf M. R., Dart M. J., Gelain A., Meyer M. D., Frost J. M., Anderson D. J., Buckley M., Curzon P., Cao Y-J., Puttfarcken P., Searle X., Ji J., Putman C. B., Surowy C., Toma L. and Barlocco D. Structure-Activity Studies and Analgesic Efficacy of N-(3-Pyridinyl)-Bridged Bicyclic Diamines, Exceptionally Potent Agonists at Nicotinic Acetylcholine Receptors. J. Med. Chem. 2007, 50, […].

Male Wister rats [3] = test: Reversal of Formalin Induced Nociception; assay type: in vivo; conditions: rat, p.o., formalin 5% v/v subplantar
Experimental: Reversal of Formalin Induced Nociception
The anti-nociceptive properties of compounds of this invention were evaluated using a model of pain: the Formalin Induced Nociception model. Male Wister rats (230-280 grams) obtained from N. I. N. (National Institute of Nutrition, Hyderabad, India) was used as experimental animals.
Rats were habituated for 20 minutes in the arena before the experiment was started. Duration of licks, bites and flinches were noted from 0-10 minutes and 20-35 minutes after administration of formalin, subplantar into the right hind paw at concentrations of 5% v/v. 50 μL of water for injection was injected into the right hind paw of the rats of the sham group. Compounds of this invention were administered orally prior to formalin administration.

[4] = Rodent Pharmacokinetic Study; conditions: Wistar, in vivo, Wister rat male
Experimental: Rodent Pharmacokinetic Study
Male wistar rats (230-280 grams) obtained from NIN (National Institute of Nutrition, Hyderabad, India) were used as an experimental animal. Three to five animals were housed in each cage. Animals were kept fasted over night and maintained on a 12 hours light/dark cycle. […]
At each time point blood was collected by jugular vein. Plasma was stored frozen at −20° C. until analysis. The concentrations of the NCE compound in plasma were determined using LC-MS/MS method. Schedule time points: Pre dose 0.25, 0.5, 1, 1.5, 2, 3, 4, 6, 8, 10, 12 and 24 hours after dosing (n=3). The NCE compounds were quantified in plasma by validated LC-MS/MS method using solid phase extraction technique. NCE compounds were quantified in the calibration range of 1-2000 ng/mL in plasma. Study samples were analyzed using calibration samples in the batch and quality control samples spread across the batch. Pharmacokinetic parameters Cmax, Tmax, AUCs, T112 and Bioavailability were calculated by non-compartmental model using software WinNonlin version 5.0.1.

## Cl.Cl.Clc1cncc(OCC2CC3CC3N2)c1 (stereo not shown) [Example 7, 3-(5-Chloropyridin-3-yloxymethyl)-2-azabicyclo[3.1.0]hexane dihydrochloride]
Male Wister rats [1]; 1 mg/kg p.o.
  Inference: Active
  Exploration time mean ± S.E.M, Familiar object: 6.81 ± 1.49 s
  Exploration time mean ± S.E.M, Novel object: 16.70 ± 3.19 s
[2]
  Ki: 0.19 nM
Male Wister rats [3]
  Dose (reversal of formalin induced nociception): ≦30 mg/kg, p.o.
[4]; iv, I.V, 5 mg/kg
  AUC(0-t): 2.39 ± 0.196 µg·h/mL
  Cmax: 2.34 ± 0.388 µg/mL
  Tmax: 4.8 min
  half-life: 51.6 ± 1.8 min
[4]; po, P.O 5 mg/kg vs I.V 5 mg/kg
  bioavailability: 50 ± 13%
[4]; po, P.O, 5 mg/kg
  AUC(0-t): 1.19 ± 0.201 µg·h/mL
  Cmax: 0.949 ± 0.2 µg/mL
  Tmax: 15 min
  half-life: 64.2 ± 2.4 min

## Cl.c1cncc(OCC2CC3CC3N2)c1 (stereo not shown) [Example 1, 3-(Pyridin-3-yloxymethyl)-2-azabicyclo[3.1.0]hexane hydrochloride]
Male Wister rats [1]; 0.1 mg/kg p.o.
  Inference: Active
  Exploration time mean ± S.E.M, Familiar object: 7.75 ± 0.84 s
  Exploration time mean ± S.E.M, Novel object: 12.65 ± 1.96 s
[2]
  Ki: 7.7 nM
Male Wister rats [3]
  Dose (reversal of formalin induced nociception): ≦10 mg/kg, p.o.
[4]; iv, I.V, 5 mg/kg
  AUC(0-t): 4.05 ± 0.679 µg·h/mL
  Cmax: 3.19 ± 0.038 µg/mL
  Tmax: 4.8 min
  half-life: 116 ± 37.2 min
[4]; po, P.O 15 mg/kg vs I.V 5 mg/kg
  bioavailability: 92 ± 16%
[4]; po, P.O, 15 mg/kg
  AUC(0-t): 10.9 ± 0.646 µg·h/mL
  Cmax: 7.61 ± 1.66 µg/mL
  Tmax: 15 min
  half-life: 251 ± 91.8 min
